Experimental data published in US9937151B2, “Carbapenem antibacterials with gram-negative activity” (priority 2010, dated 2018).
Converted amounts (≈) assume the structure as drawn.

System: G(−) bacterial strains
Experiment: Dilution antimicrobial susceptibility tests (MIC, NCCLS agar dilution / broth dilution)
Format: cell-based, Gram-negative organisms
Conditions: unit assumed
Protocol: The MIC (minimum inhibitory concentration) was determined by the NCCLS (National Committee for Clinical Laboratory Standards) methods 2000. Methods for dilution antimicrobial susceptibility testing for bacteria that growth aerobically (M7-A5, vol. 20, No. 2). The agar dilution method for determining antimicrobial susceptibility was carried out using Mueller-Hinton agar. A final inoculum of 10^4 CFU/spot was applied with an inoculation device. Broth dilution tests were performed with 5×10^5 CFU/well in 96 well plates. The susceptibilities of streptococci were determined by Mueller-Hinton agar supplemented with 5% sheep blood. All assays were run with the indicated control strains, available from the ATCC (American Type Culture Collection, Rockville, Md.).
Abbreviations used in Table 1 are defined as follows: Cf-R: Ceftazidime Resistance, Ci-R: Ciprofloxacin Resistance, Gen-R: Gentamycin Resistance, Imp-R: Imipenem Resistance, Mp-R: Meropenem Resistance, Ofx-R: Ofloxacin Resistance, B+: β-lactamase Production, AmpC: AmpC-lactamase Hyper production, CBPase: Carbapenemase Production.

[1] = strain #1 Acinetobacter calcoaceticus
[2] = strain #2 Acinetobacter baumannii, Cf-R, Ci-R
[3] = strain #3 Acinetobacter baumannii, Cf-R, Ci-R, Mp-I
[4] = strain #4 Acinetobacter baumannii, Cf-R, Imp-I, CBPase
[5] = strain #7 Enterobacter aerogenes
[6] = strain #8 Enterobacter cloacae, Cf-R, B+
[7] = strain #9 Enterobacter cloacae, Cf-R
[8] = strain #10 Escherichia coli, Ci-R
[9] = strain #11 Escherichia coli, Ci-R, AmpC
[10] = strain #15 Klebsiella pneumoniae
[11] = strain #16 Moraxella catarrhalis
[12] = strain #21 Providencia rettgeri
[13] = strain #22 Salmonella typhimurium
[14] = strain #25 Shigella dysenteriae
[15] = strain #28 Stenotrophomonas maltophilia
[16] = strain #29 Pseudomonas aeruginosa
[17] = strain #30 Pseudomonas aeruginosa
[18] = strain #31 Pseudomonas aeruginosa, Ofx-R
[19] = strain #32 Pseudomonas aeruginosa, Cf-R
[20] = strain #33 Pseudomonas aeruginosa, Ci-R
[21] = strain #34 Pseudomonas aeruginosa, Gen-R
[22] = strain #35 Pseudomonas aeruginosa, Ip-R
[23] = strain #36 Pseudomonas aeruginosa, Cf-R, Ci-R, Mp-R

Compound	MIC [1] [µg/mL]	MIC [2] [µg/mL]	MIC [3] [µg/mL]	MIC [4] [µg/mL]	MIC (strain #5 Citrobacter diversus) [µg/mL]	MIC (strain #6 Citrobacter freundii) [µg/mL]	MIC [5] [µg/mL]	MIC [6] [µg/mL]	MIC [7] [µg/mL]	MIC [8] [µg/mL]	MIC [9] [µg/mL]	MIC (strain #12 Escherichia coli) [µg/mL]	MIC (strain #13 Escherichia coli) [µg/mL]	MIC (strain #14 Klebsiella oxytoca) [µg/mL]	MIC [10] [µg/mL]	MIC [11] [µg/mL]	MIC (strain #17 Morganella Morganii) [µg/mL]	MIC (strain #18 Morganella Morganii) [µg/mL]	MIC (strain #19 Proteus vulgaris) [µg/mL]	MIC (strain #20 Proteus mirabilis) [µg/mL]	other results
C[C@@H](O)[C@H]1C(=O)N2C(C(=O)O)=C(CN3CC(O)C(NC(=N)N)C3)[C@H](C)[C@H]12 (mixture of isomers) [Compound 176]	0.13	0.5	1	1	0.063	0.13	0.25	0.063	0.13	0.063	0.063	0.063	0.13	0.13	0.13	≤ 0.008	1	0.5	0.25	0.063	MIC [12]: 0.25 µg/mL; MIC [13]: 0.13 µg/mL; MIC (strain #23 Serratia marcescens): 0.25 µg/mL; MIC (strain #24 Serratia marcescens): 0.25 µg/mL; MIC [14]: 0.13 µg/mL; MIC (strain #26 Shigella sonnei): 0.063 µg/mL; MIC (strain #27 Shigella flexneri): 0.063 µg/mL; MIC [15]: 0.063 µg/mL; MIC [16]: 1 µg/mL; MIC [17]: 1 µg/mL; MIC [18]: 0.5 µg/mL; MIC [19]: 1 µg/mL; MIC [20]: 1 µg/mL; MIC [21]: 1 µg/mL; MIC [22]: 2 µg/mL; MIC [23]: 8 µg/mL
CC(O)C1C(=O)N2C(C(=O)O)=C(CN3CC(O)C(C(=N)N)C3)C(C)C12 (mixture of isomers) [Compound 185b]	0.13	0.5	2	1	0.063	0.063	0.25	0.063	0.13	0.031	0.031	0.031	0.063	0.13	0.13	≤ 0.008	0.5	0.5	0.25	0.063	MIC [12]: 0.25 µg/mL; MIC [13]: 0.063 µg/mL; MIC (strain #23 Serratia marcescens): 0.13 µg/mL; MIC (strain #24 Serratia marcescens): 0.13 µg/mL; MIC [14]: 0.063 µg/mL; MIC (strain #26 Shigella sonnei): 0.063 µg/mL; MIC (strain #27 Shigella flexneri): 0.063 µg/mL; MIC [15]: 0.13 µg/mL; MIC [16]: 1 µg/mL; MIC [17]: 1 µg/mL; MIC [18]: 0.5 µg/mL; MIC [19]: 1 µg/mL; MIC [20]: 1 µg/mL; MIC [21]: 1 µg/mL; MIC [22]: 4 µg/mL; MIC [23]: 8 µg/mL
C[C@@H](O)C1C(=O)N2C(C(=O)O)=C(CN3CC[C@H](C#N)C3)[C@H](C)C12 (stereo partly drawn) [Compound 7]	4 (≈ 12.5 µM)	2 (≈ 6.26 µM)	4 (≈ 12.5 µM)	4 (≈ 12.5 µM)	0.063 (≈ 0.197 µM)	0.13 (≈ 0.407 µM)	0.5 (≈ 1.57 µM)	0.13 (≈ 0.407 µM)	0.25 (≈ 0.783 µM)	0.13 (≈ 0.407 µM)	0.13 (≈ 0.407 µM)	0.13 (≈ 0.407 µM)	0.13 (≈ 0.407 µM)	0.25 (≈ 0.783 µM)	0.25 (≈ 0.783 µM)	≤ 0.008	1 (≈ 3.13 µM)	1 (≈ 3.13 µM)	0.5 (≈ 1.57 µM)	0.13 (≈ 0.407 µM)	MIC [12]: 0.5 µg/mL (≈ 1.57 µM); MIC [13]: 0.13 µg/mL (≈ 0.407 µM); MIC (strain #23 Serratia marcescens): 0.25 µg/mL (≈ 0.783 µM); MIC (strain #24 Serratia marcescens): 0.5 µg/mL (≈ 1.57 µM); MIC [14]: 0.25 µg/mL (≈ 0.783 µM); MIC (strain #26 Shigella sonnei): 0.13 µg/mL (≈ 0.407 µM); MIC (strain #27 Shigella flexneri): 0.13 µg/mL (≈ 0.407 µM); MIC [15]: 0.5 µg/mL (≈ 1.57 µM); MIC [16]: 16 µg/mL (≈ 50.1 µM); MIC [17]: 8 µg/mL (≈ 25.1 µM); MIC [18]: 2 µg/mL (≈ 6.26 µM); MIC [19]: 8 µg/mL (≈ 25.1 µM); MIC [20]: 8 µg/mL (≈ 25.1 µM); MIC [21]: 8 µg/mL (≈ 25.1 µM); MIC [22]: 32 µg/mL (≈ 100 µM); MIC [23]: > 32 µg/mL
